Laboratory results reported in patent US11179471B2, “Peptide for cytosolic delivery” (priority 2017, dated 2021).
Entries after “also recorded” stand apart in the source; their conditions may differ. Residues, ends and D or L forms follow the SMILES beside them.

How the values were obtained:
HeLa cells [1] = assay: Release of Alexa 488-dextran (10 kDa) into the cytoplasm, confocal microscopy; type: cell-based
Experimental: Cells; HeLa, peptides; 40 μM, Alexa 488-dextran (10 kDa); 200 μg/mL, treatment; 1 hr in α-MEM(−).
Cells; HeLa, peptides; 40 μM, Alexa 488-dextran (10 kDa); 200 μg/mL, treatment; 1 hr in α-MEM(−). The results are presented as means ±SE (n=3). **; p<0.01 (Student's t-test).
Cells; HeLa, peptides; 40 μM, Alexa 488-dextran (10 kDa); 200 μg/mL, treatment; 1 hr in α-MEM(−). Results are presented as means±SE (n=3). *; p<0.05, **; p<0.01, ***; p<0.001 (one-way ANOVA followed by the Tukey-Kramer honestly significant difference test (post-hoc test)).
(§1) In the presence of each peptide obtained in Example 1 (L17E, L17E/Q21E, HA/E1, HA/E2) (40 μM) or in the absence of the peptides (a control, no peptide), HeLa cells and Alexa 488-dextran (Molecular Probes, 10 kDa) (200 μg/mL) were treated in α-MEM(−) for 1 hour. The cells were washed, and observed with a confocal microscope.
as §1, with “L17Aad)” for “L17E/Q21E, HA/E1, HA/E2)”
as §1, with “(HAad, HA/E2, L17Aad, L17E)” for “(L17E, L17E/Q21E, HA/E1, HA/E2)”
When HeLa cells were incubated with Alexa 488-dextran (10 kDa) (200 μg/mL) as a macromolecular drug model in the presence of HAad (40 μM) in α-MEM(−) for 1 hour, Alexa 488-dextran release into about 75% of cells (cytosol) was observed. In contrast, when the incubation was performed in the presence of L17E, Alexa 488-dextran release into about 50% of the cells was observed.
HeLa cells, Alexa 488-dextran (Molecular Probes, 10 kDa) (200 μg/mL), and HAad; or HeLa cells, Alexa 488-dextran, (Molecular Probes, 10 kDa) (200 μg/mL), and HAad-homoR (20 μM) were treated in α-MEM(−) for 1 hour. The cells were washed, and observed with a confocal microscope.

HeLa cells [2] = assay: as above; type: cell-based; remark: listed apart in the source

CC[C@H](C)[C@H](N)C(=O)N[C@@H](Cc1c[nH]c2ccccc12)C(=O)N[C@@H](CC(C)C)C(=O)N[C@H](C(=O)N[C@@H](C)C(=O)N[C@@H](CC(C)C)C(=O)N[C@@H](CCCCN)C(=O)N[C@@H](Cc1ccccc1)C(=O)N[C@@H](CC(C)C)C(=O)NCC(=O)N[C@@H](CCCCN)C(=O)N[C@@H](C)C(=O)N[C@@H](C)C(=O)N[C@@H](C)C(=O)N[C@@H](CCCCN)C(=O)N[C@@H](C)C(=O)N[C@@H](CCCC(=O)O)C(=O)N[C@@H](C)C(=O)N[C@@H](CCCCN)C(=O)N[C@@H](CCC(N)=O)C(=O)N[C@@H](CCCC(=O)O)C(=O)N[C@@H](CC(C)C)C(=O)N[C@@H](CO)C(=O)N[C@@H](CCCCN)C(=O)N[C@@H](CC(C)C)C(N)=O)[C@@H](C)O [HAad, H-IWLTALKFLGKAAAKAXAKQXLSKL-amide] (HELM PEPTIDE1{I.W.L.T.A.L.K.F.L.G.K.A.A.A.K.A.[O=C(O)CCC[C@H](N[*:1])C(=O)[*:2]].A.K.Q.[O=C(O)CCC[C@H](N[*:1])C(=O)[*:2]].L.S.K.L.[am]}$$$$V2.0)
cells in which release of Alexa 488-dextran into the cytoplasm was observed (HeLa cells [1]; peptide 20 μM, Alexa 488-dextran (10 kDa) 200 μg/mL, 1 hour in α-MEM(−)): about 40%
endosome-encapsulated substance (Alexa 488-dextran) releasing activity, in words (HeLa cells [1]; peptide 40 μM, Alexa 488-dextran 200 μg/mL, 1 hr, compared with L17E): higher endosomal content release activity than L17E; also recorded: Significant outflow; also recorded: much more effectively
cells in which Alexa 488-dextran release into the cytosol was observed (HeLa cells [1]; peptide 40 μM, Alexa 488-dextran (10 kDa) 200 μg/mL, 1 hour in α-MEM(−)): about 75%
EC50 (HeLa cells [2]; Alexa 488-dextran (10 kDa) 200 μg/mL, 1 hour, read-out: peptide concentration required to detect the signal of intracellularly released Alexa 488-dextran in 50% of the cells): 20 µM
EC50 relative to L17E (HeLa cells [2]; dextran release, HAad vs L17E): ½
